Reference: ChEMBL document CHEMBL1201862, “PubChem BioAssay data set” (2004)
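All cell lines were grown in 96-well plates and treated with compound for 48 hours. GI50 marks 50% less growth.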 The source made the active and inactive calls. No stated cut-off is given here; in the data, active = GI50 up to about 1.1 µM and inactive = higher.

Key:
Experiment in all cases: NCI tumour cell line growth inhibition, 48 h
CCRF-CEM = tested on: CCRF-CEM
HCT-116 = tested on: HCT-116
HCT-15 = tested on: HCT-15
HT-29 = tested on: HT-29
IGROV-1 = tested on: IGROV-1
K562 = tested on: K562
LOX IMVI = tested on: LOX IMVI
M14 = tested on: M14
MOLT-4 = tested on: MOLT-4
Malme-3M = tested on: Malme-3M
OVCAR-5 = tested on: OVCAR-5
SF-295 = tested on: SF-295
SK-MEL-28 = tested on: SK-MEL-28
SK-MEL-2 = tested on: SK-MEL-2
SNB-19 = tested on: SNB-19
SW-620 = tested on: SW-620
TK-10 = tested on: TK-10
U-251 = tested on: U-251
UACC-257 = tested on: UACC-257

SMILES | GI50 (CCRF-CEM) | GI50 (HCT-116) | GI50 (HCT-15) [µM] | GI50 (HT-29) | GI50 (IGROV-1) | GI50 (K562) | GI50 (LOX IMVI) | GI50 (M14) | GI50 (MOLT-4) | GI50 (Malme-3M) | GI50 (OVCAR-5) | GI50 (SF-295) | GI50 (SK-MEL-28) | GI50 (SK-MEL-2) | GI50 (SNB-19) | GI50 (SW-620) | GI50 (TK-10) | GI50 (U-251) | GI50 (UACC-257)
Nc1ccc(Oc2ccc(C34CC5CC(C3)CC(c3ccc(Oc6ccc(N)cc6C(F)(F)F)cc3)(C5)C4)cc2)c(C(F)(F)F)c1 | 36.1 µM (inactive) | 24.9 µM (inactive) | 31.8 | 17.2 µM (inactive) | 19.5 µM (inactive) | 44 µM (inactive) | 17.9 µM (inactive) | 16.9 µM (inactive) | 35.7 µM (inactive) | 22.2 µM (inactive) | 27 µM (inactive) | 25.3 µM (inactive) | 43.3 µM (inactive) | 14.1 µM (inactive) | 22.5 µM (inactive) | 36.3 µM (inactive) | 16.1 µM (inactive) | 14.5 µM (inactive) | 18.7 µM (inactive)
CCC(NC1=NCCO1)c1cccs1 (stereo not drawn) | 7.36 µM (inactive) | 14.1 µM (inactive) | 15.6 | 19.7 µM (inactive) | 20.8 µM (inactive) | 5.55 µM (inactive) | 23.7 µM (inactive) | 19 µM (inactive) | > 100 µM (inactive) | 13 µM (inactive) | 17 µM (inactive) | 15.1 µM (inactive) | 15.6 µM (inactive) | 15.5 µM (inactive) | 16.3 µM (inactive) | 24.3 µM (inactive) | 15.8 µM (inactive) | 13.5 µM (inactive) | 18 µM (inactive)
Clc1nc2c(-c3cccs3)ncnc2n1Cc1ccccc1 | > 68.1 µM (inactive) | 45.2 µM (inactive) | 32.1 | 39.8 µM (inactive) | 29.6 µM (inactive) | 57.3 µM (inactive) | > 86.9 µM (inactive) | 66.8 µM (inactive) | 37.5 µM (inactive) | 36.5 µM (inactive) | > 94.2 µM (inactive) | 63.5 µM (inactive) | 61.5 µM (inactive) | 63.2 µM (inactive) | 27.4 µM (inactive) | > 30.3 µM (inactive) | 23 µM (inactive) | 38.5 µM (inactive) | 21.2 µM (inactive)
COc1cc2c(cc1OC)[C@@](C)(C(O)C(O)C(C)(C)O)NCC2 (stereo partly drawn) | > 100 µM (inactive) | > 100 µM (inactive) | > 100 | > 100 µM (inactive) | > 100 µM (inactive) | > 100 µM (inactive) | > 100 µM (inactive) | > 100 µM (inactive) | > 100 µM (inactive) | > 100 µM (inactive) | > 100 µM (inactive) | > 100 µM (inactive) | > 100 µM (inactive) | > 100 µM (inactive) | > 100 µM (inactive) |  | > 100 µM (inactive) | > 100 µM (inactive) | > 100 µM (inactive)
C(=N\c1ccc(-c2nc3ccccc3[nH]2)cc1)/c1ccco1 | 16.5 µM (inactive) | 57.3 µM (inactive) | 61 | > 100 µM (inactive) | > 100 µM (inactive) | 37.6 µM (inactive) | 67 µM (inactive) | > 100 µM (inactive) | 29.3 µM (inactive) | > 100 µM (inactive) | > 100 µM (inactive) |  | > 100 µM (inactive) | 67.8 µM (inactive) |  | 89.1 µM (inactive) | > 100 µM (inactive) |  | > 100 µM (inactive)
COc1cc(/C=N\N(C)C)cc(/C=N/N(C)C)c1O | 17.3 µM (inactive) | 29.8 µM (inactive) | 88.1 | 10.6 µM (inactive) |  |  | 25.1 µM (inactive) | 18.3 µM (inactive) | < 0.01 µM (active) | 10.8 µM (inactive) |  | 2.9 µM (inactive) | 19.3 µM (inactive) | 7.89 µM (inactive) | 30.6 µM (inactive) | 46.7 µM (inactive) | 55.7 µM (inactive) | 21.1 µM (inactive) | 28.6 µM (inactive)
[N-]=[N+]=C1CNC(=O)NC1=O | 24.3 µM (inactive) | > 100 µM (inactive) | > 100 | > 100 µM (inactive) | > 100 µM (inactive) | > 100 µM (inactive) | 60.1 µM (inactive) | 58.6 µM (inactive) | 42.5 µM (inactive) | > 100 µM (inactive) | > 100 µM (inactive) | > 100 µM (inactive) | > 100 µM (inactive) | > 100 µM (inactive) | > 100 µM (inactive) | > 100 µM (inactive) | > 100 µM (inactive) | > 100 µM (inactive) | > 100 µM (inactive)
Cc1ccc2c(c1)[nH]c(=S)n2/C=C1\C(=O)Oc2ccccc2C1=O | 34.8 µM (inactive) | 44.9 µM (inactive) | 44.9 | 57.5 µM (inactive) | 39 µM (inactive) | 52.2 µM (inactive) | 70 µM (inactive) | 39.8 µM (inactive) | 38.2 µM (inactive) | 34.6 µM (inactive) | > 100 µM (inactive) | > 100 µM (inactive) | 47.3 µM (inactive) | > 100 µM (inactive) | 86.5 µM (inactive) | 52.6 µM (inactive) | > 100 µM (inactive) | 53.1 µM (inactive) | 82 µM (inactive)
CN(Cc1cnc2c(n1)C(N)=NN(N)N2)c1ccc(C(=O)NC(CCP(=O)(O)O)C(=O)O)cc1 (stereo not drawn) | 0.267 µM (active) | 0.45 µM (active) | 6.14 | 9.51 µM (inactive) | 4.86 µM (inactive) | > 100 µM (inactive) | 0.637 µM (active) | 4.53 µM (inactive) | 5.42 µM (inactive) | > 23.8 µM (inactive) |  | 3.08 µM (inactive) | > 85.7 µM (inactive) | > 100 µM (inactive) | > 30.7 µM (inactive) | 1.53 µM (inactive) | > 100 µM (inactive) | > 91 µM (inactive) | > 100 µM (inactive)
CO/N=C(\C(=O)Nc1cncs1)c1csc(NC(c2ccccc2)(c2ccccc2)c2ccccc2)n1 | 3.81 µM (inactive) | 5 µM (inactive) | > 10 | 4.63 µM (inactive) | > 10 µM (inactive) | > 10 µM (inactive) | 7.21 µM (inactive) | > 10 µM (inactive) | 3.31 µM (inactive) | > 10 µM (inactive) | > 10 µM (inactive) | 7.21 µM (inactive) | > 10 µM (inactive) | > 10 µM (inactive) | > 10 µM (inactive) | > 10 µM (inactive) | > 10 µM (inactive) | > 10 µM (inactive) | > 10 µM (inactive)
COc1cc2c(cc1C)NC(=O)/C2=C\c1cccnc1 | 20.8 µM (inactive) | 15.1 µM (inactive) | 16.4 | 15.5 µM (inactive) |  | 9.4 µM (inactive) | 18.7 µM (inactive) | 12.9 µM (inactive) | 7.98 µM (inactive) | 15 µM (inactive) | 17.6 µM (inactive) | 14.7 µM (inactive) | 50.4 µM (inactive) | 18.7 µM (inactive) | 12.6 µM (inactive) | 26.8 µM (inactive) | 14.9 µM (inactive) | 12.9 µM (inactive) | 13.1 µM (inactive)
N#Cc1c(N)oc2cc3c(C#N)c(N)oc3cc12 | > 100 µM (inactive) |  | > 100 | > 100 µM (inactive) | > 100 µM (inactive) | > 100 µM (inactive) | > 100 µM (inactive) | > 100 µM (inactive) | > 100 µM (inactive) | > 100 µM (inactive) | > 100 µM (inactive) | > 100 µM (inactive) | > 100 µM (inactive) | > 100 µM (inactive) | > 100 µM (inactive) | > 100 µM (inactive) | > 100 µM (inactive) | > 100 µM (inactive) | > 100 µM (inactive)
N#C[BH2-][n+]1ccc(C(=O)NNCc2ccccc2)cc1 | > 100 µM (inactive) | > 100 µM (inactive) | > 100 |  | > 100 µM (inactive) | > 100 µM (inactive) | > 100 µM (inactive) | > 100 µM (inactive) | > 100 µM (inactive) | > 100 µM (inactive) | > 100 µM (inactive) | > 100 µM (inactive) | > 100 µM (inactive) | > 100 µM (inactive) | > 100 µM (inactive) | > 100 µM (inactive) | > 100 µM (inactive) | > 100 µM (inactive) | > 100 µM (inactive)
O=C1C2C3C=C4c5ccccc5N(c5ccccc5)C4(C2C(=O)N1c1ccc([N+](=O)[O-])cc1)[C@H]1C(=O)N(c2ccc([N+](=O)[O-])cc2)C(=O)[C@@H]31 (stereo partly drawn) | > 100 µM (inactive) | > 100 µM (inactive) | > 100 | > 100 µM (inactive) | > 100 µM (inactive) | > 100 µM (inactive) | > 100 µM (inactive) | > 100 µM (inactive) | > 100 µM (inactive) | > 100 µM (inactive) | > 100 µM (inactive) | > 100 µM (inactive) | > 100 µM (inactive) | > 100 µM (inactive) | > 100 µM (inactive) | > 100 µM (inactive) | > 100 µM (inactive) | > 100 µM (inactive) | > 100 µM (inactive)
COC(=O)C1=C(O)c2cc(OC)c(OC)c(OC)c2C(c2ccc3c(c2)OCO3)[C@@H]1C(=O)OC (stereo partly drawn) | 4.42 µM (inactive) | 4.36 µM (inactive) | 7.1 | 2.84 µM (inactive) | 5.56 µM (inactive) | 3.9 µM (inactive) | 4.43 µM (inactive) | 3.03 µM (inactive) | 4.69 µM (inactive) | 3.44 µM (inactive) | > 100 µM (inactive) | 2.01 µM (inactive) | 7.31 µM (inactive) | 7.48 µM (inactive) |  | 2.22 µM (inactive) | 7.18 µM (inactive) | 3.66 µM (inactive) | 5.81 µM (inactive)
